# Experimental data as given in patent US20260083851A1 (AVILAR THERAPEUTICS, INC., priority 2022, published 2026).
# Target: T1, ASGP receptor (biotinylated ASGPR) (Homo sapiens, UniProt P07306)
# T1 construct: biotin (biotinylated)
# T1 sequence (P07306 1-291): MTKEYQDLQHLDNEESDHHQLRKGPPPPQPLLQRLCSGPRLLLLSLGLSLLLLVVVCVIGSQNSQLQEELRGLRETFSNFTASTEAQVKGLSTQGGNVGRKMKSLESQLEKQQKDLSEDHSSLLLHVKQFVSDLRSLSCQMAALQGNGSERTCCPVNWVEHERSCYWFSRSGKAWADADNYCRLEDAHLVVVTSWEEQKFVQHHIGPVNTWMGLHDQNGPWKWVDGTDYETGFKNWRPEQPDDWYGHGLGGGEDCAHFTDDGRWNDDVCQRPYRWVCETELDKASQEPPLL
# Assay type: binding
# Conditions: SPR, Biacore 8K, 25° C.; Table 1A; read-out: ASGPR KD
row,SMILES,Kd
1,"[N-]=[N+]=NCCCCCC(=O)NC(COCCC(=O)NCCOCCOCCOCCOC[C@H]1OC[C@H](Nc2cncc(C(F)(F)F)n2)[C@@H](O)[C@H]1O)(COCCC(=O)NCCOCCOCCOCCOC[C@H]1OC[C@H](Nc2cncc(C(F)(F)F)n2)[C@@H](O)[C@H]1O)COCCC(=O)NCCOCCOCCOCCOC[C@H]1OC[C@H](Nc2cncc(C(F)(F)F)n2)[C@@H](O)[C@H]1O [A87, 3,3′-((2-(6-azidohexanamido)-2-(1-((2R,3R,4R,5S)-3,4-dihydroxy-5-((6-(trifluoromethyl)pyrazin-2-yl)amino)tetrahydro-2H-pyran-2-yl)-15-oxo-2,5,8,11,18-pentaoxa-14-azanonadecan-19-yl)propane-1,3-diyl)bis(oxy))bis(N-(1-((2R,3R,4R,5S)-3,4-dihydroxy-5-((6-(trifluoromethyl)pyrazin-2-yl)amino)tetrahydro-2H-pyran-2-yl)-2,5,8,11-tetraoxatridecan-13-yl)propanamide)]",< 10 µM
2,"O=C(NC[C@H]1OC[C@H](Nc2cncc(C(F)(F)F)n2)[C@@H](O)[C@H]1O)c1nc2ccccc2[nH]1 [A13, N-(((2R,3R,4R,5S)-3,4-dihydroxy-5-((6-(trifluoromethyl)pyrazin-2-yl)amino)tetrahydro-2H-pyran-2-yl)methyl)-1H-benzo[d]imidazole-2-carboxamide]",< 10 µM
3,O=C(NC[C@H]1OC[C@H](Nc2cncc(C(F)(F)F)n2)[C@@H](O)[C@H]1O)c1ccn[nH]1 [A49],< 10 µM
4,"O=C(NC[C@H]1OC[C@H](Nc2cncc(C(F)(F)F)n2)[C@@H](O)[C@H]1O)c1ccc2[nH]cnc2n1 [A69, N-(((2R,3R,4R,5S)-3,4-dihydroxy-5-((6-(trifluoromethyl)pyrazin-2-yl)amino)tetrahydro-2H-pyran-2-yl)methyl)-1H-imidazo[4,5-b]pyridine-5-carboxamide]",< 10 µM
5,"O=C(O)CNC[C@H]1OC[C@H](Nc2cncc(C(F)(F)F)n2)[C@@H](O)[C@H]1O [A26, (((2R,3R,4R,5S)-3,4-dihydroxy-5-((6-(trifluoromethyl)pyrazin-2-yl)amino)tetrahydro-2H-pyran-2-yl)methyl)glycine]",< 10 µM
6,O=C(O)CCC(=O)NC1CC2(C1)CC(NC(=O)C[C@H]1OC[C@H](Nc3cncc(C(F)(F)F)n3)[C@@H](O)[C@H]1O)C2 (stereo partly drawn) [A93],< 10 µM
7,"O=C(O)COCCOCC(=O)NC[C@H]1OC[C@H](Nc2ccnc(C(F)(F)F)c2)[C@@H](O)[C@H]1O [A107, 2-(2-(2-((((2R,3R,4R,5S)-3,4-dihydroxy-5-((2-(trifluoromethyl)pyridin-4-yl)amino)tetrahydro-2H-pyran-2-yl)methyl)amino)-2-oxoethoxy)ethoxy)acetic acid]",< 10 µM
8,"O=C(NC[C@H]1OC[C@H](Nc2cncc(C(F)(F)F)n2)[C@@H](O)[C@H]1O)Nc1ccccc1 [A114, 1-(((2R,3R,4R,5S)-3,4-dihydroxy-5-((6-(trifluoromethyl)pyrazin-2-yl)amino)tetrahydro-2H-pyran-2-yl)methyl)-3-phenylurea]",< 10 µM
9,"O=C(O)c1ccc(S(=O)(=O)NC[C@H]2OC[C@H](Nc3cncc(C(F)(F)F)n3)[C@@H](O)[C@H]2O)cc1 [A111, 4-(N-(((2R,3R,4R,5S)-3,4-dihydroxy-5-((6-(trifluoromethyl)pyrazin-2-yl)amino)tetrahydro-2H-pyran-2-yl)methyl)sulfamoyl)benzoic acid]",< 10 µM
10,"OC[C@H]1O[C@@H](c2ccccc2)[C@H](Nc2cncc(C(F)(F)F)n2)[C@@H](O)[C@H]1O [A109, (2R,3R,4R,5R,6S)-2-(hydroxymethyl)-6-phenyl-5-((6-(trifluoromethyl)pyrazin-2-yl)amino)tetrahydro-2H-pyran-3,4-diol]",10 to 100 µM
11,"O=C(O)CCCCCNC(=O)NC[C@H]1OC[C@H](Nc2cncc(C(F)(F)F)n2)[C@@H](O)[C@H]1O [A115, 6-(3-(((2R,3R,4R,5S)-3,4-dihydroxy-5-((6-(trifluoromethyl)pyrazin-2-yl)amino)tetrahydro-2H-pyran-2-yl)methyl)ureido)hexanoic acid]",< 10 µM
12,"O=C(NC[C@H]1OC[C@H](Nc2cncc(C(F)(F)F)n2)[C@@H](O)[C@H]1O)c1cccnc1 [A63, N-(((2R,3R,4R,5S)-3,4-dihydroxy-5-((6-(trifluoromethyl)pyrazin-2-yl)amino)tetrahydro-2H-pyran-2-yl)methyl)nicotinamide]",< 10 µM
13,"O=C(NC[C@H]1OC[C@H](Nc2cncc(C(F)(F)F)n2)[C@@H](O)[C@H]1O)c1cnc2c(c1)CCNC2 [A76, N-(((2R,3R,4R,5S)-3,4-dihydroxy-5-((6-(trifluoromethyl)pyrazin-2-yl)amino)tetrahydro-2H-pyran-2-yl)methyl)-5,6,7,8-tetrahydro-1,7-naphthyridine-3-carboxamide]",< 10 µM

# Same assay, conditions: SPR, Biacore 8K, 25° C.; Table 1B, numeric bound; read-out: ASGPR Kd
row,SMILES,Kd
1,"OC[C@H]1OC[C@H](NC2CCC2)[C@@H](O)[C@H]1O [A166, (2R,3R,4R,5S)-5-(cyclobutylamino)-2-(hydroxymethyl)tetrahydro-2H-pyran-3,4-diol]",> 30 µM

# Same assay, conditions: SPR, Biacore 8K, 25° C.; Table 1C, numeric bound; read-out: ASGPR KD
row,SMILES,Kd
1,"OC[C@H]1OC[C@H](Nc2ncc3cc[nH]c3n2)[C@@H](O)[C@H]1O [A184, (2R,3R,4R,5S)-5-((7H-pyrrolo[2,3-d]pyrimidin-2-yl)amino)-2-(hydroxymethyl)tetrahydro-2H-pyran-3,4-diol]",> 30 µM

# Same assay, conditions: SPR, Biacore 8K, 25° C.; Table 1C; read-out: ASGPR KD
row,SMILES,Kd
1,"O=C(O)c1ccc(-c2ccc(OC[C@H]3OC[C@H](Nc4cccc(C(F)(F)F)n4)[C@@H](O)[C@H]3O)cc2)cc1 [A225, 4′-(((2R,3R,4R,5S)-3,4-dihydroxy-5-((6-(trifluoromethyl)pyridin-2-yl)amino)tetrahydro-2H-pyran-2-yl)methoxy)-[1,1′-biphenyl]-4-carboxylic acid]",< 10 µM
2,CC[C@H]1O[C@H](C)[C@H](O)[C@H](O)[C@H]1Oc1cccc(C(F)(F)F)n1 [A316],< 10 µM
3,O[C@@H]1[C@H](O)[C@@H](Oc2cccc(C(F)(F)F)n2)CO[C@@H]1CN1CCN(c2cncnc2)CC1 [A293],< 10 µM
4,C[C@H]1O[C@H](C#CCOc2ccc(C(=O)O)nn2)[C@H](Oc2cccc(C(F)(F)F)n2)[C@@H](O)[C@H]1O [A322],< 10 µM
5,"CC(C)(C)OC(=O)N1CCN(c2ccc(OC[C@H]3OC[C@H](Oc4cccc(C(F)(F)F)n4)[C@@H](O)[C@H]3O)cc2F)CC1 [A213, tert-butyl 4-(4-(((2R,3R,4S,5S)-3,4-dihydroxy-5-((6-(trifluoromethyl)pyridin-2-yl)oxy)tetrahydro-2H-pyran-2-yl)methoxy)-2-fluorophenyl) piperazine-1-carboxylate]",< 10 µM
6,C[C@H]1O[C@H](c2ccc3ccccc3n2)[C@H](Oc2cccc(C(F)(F)F)n2)[C@@H](O)[C@H]1O [A343],< 10 µM
7,"OCc1cnc(OC[C@H]2OC[C@H](Nc3cncc(C(F)(F)F)n3)[C@@H](O)[C@H]2O)nc1 [A222, (2R,3R,4R,5S)-2-(((5-(hydroxymethyl)pyrimidin-2-yl)oxy)methyl)-5-((6-(trifluoromethyl)pyrazin-2-yl)amino)tetrahydro-2H-pyran-3,4-diol]",< 10 µM
8,"O[C@@H]1[C@H](O)[C@@H](Nc2cccc(C(F)(F)F)n2)CO[C@@H]1COc1cccnn1 [A227, (2R,3R,4R,5S)-2-((pyridazin-3-yloxy)methyl)-5-((6-(trifluoromethyl)pyridine-2-yl)amino)tetrahydro-2H-pyran-3,4-diol]",< 10 µM

# Same assay, conditions: SPR, Biacore 8K, 25° C.; Table 1D; read-out: ASGPR KD
row,SMILES,Kd
1,CN1C[C@H](Nc2nccc(C(F)(F)F)n2)[C@@H](O)[C@@H](O)C1 [A372],< 10 µM
2,O[C@@H]1[C@@H](Oc2cccc(C(F)(F)F)n2)CN(c2ncon2)C[C@@H]1O [A359],< 10 µM
3,O[C@@H]1[C@@H](Nc2cncc(C(F)(F)F)n2)CNC[C@@H]1O [A362],< 10 µM
4,O=C(O)C1CCN(c2ccc(N3C[C@H](Nc4cncc(C(F)(F)F)n4)[C@@H](O)[C@@H](O)C3)nc2)CC1 [A401],< 10 µM
5,CCOC(=O)c1nc(N2C[C@H](Oc3cccc(C(F)(F)F)n3)[C@@H](O)[C@@H](O)C2)no1 [A360],< 10 µM

# Same assay, conditions: SPR, Biacore 8K, 25° C.; Table 1E; read-out: ASGPR KD
row,SMILES,Kd
1,C[C@H]1O[C@H](C2=CC3C(C2=O)[C@@H]2CC[C@H]3C2)[C@H](Oc2cccc(C(F)(F)F)n2)[C@@H](O)[C@H]1O (stereo partly drawn) [A435A],< 10 µM
2,C[C@H]1O[C@H](c2nnc(-c3ccccc3)o2)[C@H](Oc2cccc(C(F)(F)F)n2)[C@@H](O)[C@H]1O [A448],< 10 µM

# Same assay, conditions: SPR; Table 2; read-out: ASGPR SPR Binding KD
row,SMILES,Kd
1,O=C(CCOCC(COCCC(=O)NC[C@H]1OC[C@H](Nc2cncc(C(F)(F)F)n2)[C@@H](O)[C@H]1O)NCC(=O)N1CCN(Cc2ccc(-c3c[nH]c4ccncc34)c(OCCc3ccc(-c4cccc5ccncc45)cc3)c2)CC1)NC[C@H]1OC[C@H](Nc2cncc(C(F)(F)F)n2)[C@@H](O)[C@H]1O [compound 21],< 0.1 µM
2,CC1(C)C(=O)c2ccc(-c3cnc(N4CCN5C(=O)N(CCOCCOCCOCC(=O)NC(COCCC(=O)NCCOCCOCCOCCOC[C@H]6OC[C@H](Nc7nccc(C(F)(F)F)n7)[C@@H](O)[C@H]6O)COCCC(=O)NCCOCCOCCOCCOC[C@H]6OC[C@H](Nc7nccc(C(F)(F)F)n7)[C@@H](O)[C@H]6O)C[C@@H]5C4)nc3)nc2N1Cc1cccnc1C#N [compound 22],< 0.1 µM
3,CC1(C)C(=O)c2ccc(-c3cnc(N4CCN5C(=O)N(CCOCCOCCOCC(=O)NC(COCCC(=O)NCCOCCOCCOCCOC[C@H]6OC[C@H](Nc7cncc(C(F)(F)F)n7)[C@@H](O)[C@H]6O)COCCC(=O)NCCOCCOCCOCCOC[C@H]6OC[C@H](Nc7cncc(C(F)(F)F)n7)[C@@H](O)[C@H]6O)C[C@@H]5C4)nc3)nc2N1Cc1cccnc1C#N [compound 19],< 0.1 µM
